According to US20100173873A1, “TREATMENT OF METASTASIZED TUMORS” (Novartis Vaccines and Diagnostics, Inc., priority 2005, published 2010):
Entries after “also recorded” stand apart in the source; their conditions may differ.

Key:
pSTAT5 in MV4;11 cells = pSTAT5 in MV4;11 cells (flow cytometry, Western blot); conditions: Homo sapiens, MV4-11, 3 h, read-out: Inhibition of pSTAT5
pERK in MV4;11 tumors = experiment: Target modulation in vivo, pERK in MV4;11 tumors; design: species or system SCID-NOD mice; conditions: 10 mg/kg/d p.o.
Experimental: […]. […] For in vivo target modulation analyses, resected tumors were flash frozen, pulverized and stored at −70° C. prior to lysis with 150 mM NaCl, 1.5 mM MgCl2, 50 mM Hepes, pH 7.5, 10% glycerol, 1.0% Triton X-100, 1 mM EGTA, 50 mM NaF, 1 mM Na3VO4, 2 mM Pefabloc (Roche), and complete protease inhibitor cocktail (Roche). Protein content of the lysates was determined using the BCA assay (Bio-Rad, Hercules, Calif.). Western blot analysis for pERK was performed with a mouse antibody to pERK (1:1000, Cell Signaling, Beverly, Mass.) and incubated at 4° C. overnight. Total ERK level was evaluated by re-probing with antibody against total ERK (Cell Signaling). The membranes were then incubated for 1 hour at RT with 1:5000 horseradish peroxidase-conjugated anti-rabbit IgG (Jackson Immunoresearch, West Grove, Pa.). […] FLT3 or STAT5 phosphorylation was measured by probing with an anti-phosphotyrosine antibody (anti-pFLT3 antibody from Cell Signaling, and anti-pSTAT5 antibody from Upstate). Proteins were detected using enhanced chemiluminescence (ECL; Amersham Biosciences, Buckinghamshire, England) and visualized after exposure to Kodak film. Scanning densitometry was performed to quantify band intensities. […]
[…]. […] Tumors that were harvested after selected time points, were homogenized and analyzed for pFLT3 and pSTAT5 levels by IP/Western blot. […]

[1] = tested on: other kinases in the PI3K/Akt and MAPK(K) pathways; experiment: Selectivity test against other kinases; type: biochemical; conditions: negligible activity
Raf = experiment: In vitro kinase assay, Raf; type: biochemical; conditions: RTK table
PC-3M-luc tumor cells = experiment: PC-3M-luc bone metastatic prostate model; type: in vivo, nude mice
Experimental: Cell lines. Metastatic human prostate cell line PC-3M expressing null p53, del PTEN, VEGFR, FGFR and stably transfected with a construct of luciferase were obtained under a licensing agreement with Xenogen.
In vivo efficacy studies. […]. Animals received sterile rodent chow and water ad libitum and were housed in sterile filter-top cages with 12 hour light/dark cycles. All experiments were conducted under the guidelines of the Association for Assessment and Accreditation of Laboratory Animal Care International. PC-3M luc bone metastatic model. Human prostate cancer cell line PC-3M-luc cells (1.5×10^6 cells) stably transfected with a construct of luciferase were injected via intracardiac injections. Bioluminescent imaging (Xenogen's IVIS® imaging system) was used to non-invasively monitor the in vivo growth and metastasis of PC-3M-luc tumors after cell inoculation. Nearly all PC-3M-luc tumor cell-injected animals developed prostate lesions, which were mainly localized in the femur, and mandibles. […]. Mice were monitored daily and were euthanized when moribund.
Immunohistochemistry. Bone (femurs, mandible) samples were decalcified (Protocol™, Fisher Diagnostics, Middletown, Va.). Paraffin blocks were sectioned to […] thickness and placed on positively charged glass slides. Tissues were stained with hematoxylin and eosin for general tissue morphology and identification of PC-3M cells in bone.
Nude mice were inoculated with PC-3M-Luc cells intracardiacally with 1.5×10^6 cells. […]. The PC-3M-luc cell lines were purchased from Xenogen and the mice were imaged using Xenogen's IVIS® imaging system.

[2] = tested on: VEGF production in MV4;11 cells; experiment: VEGF ELISA on MV4;11 culture supernatants; type: cell-based; conditions: Homo sapiens; MV4;11, 48 hours; read-out: EC50 inhibition of VEGF production
ERK-½ = experiment: In vitro kinase assay, ERK; type: biochemical; conditions: RTK table
Akt⅓ = experiment: In vitro kinase assay, Akt; type: biochemical; conditions: RTK table

Q: `CN1CCN(c2ccc3nc(-c4c(N)c5c(F)cccc5[nH]c4=O)[nH]c3c2)CC1` [Compound 1, 4-Amino-5-fluoro-3-[6-(4-methylpiperazin-1-yl)-1H-benzimidazol-2-yl]quinolin-2(1H)-one] was tested. Which inhibition at 0.1 µM (pSTAT5 in MV4;11 cells) did it give?
A: > 50%

Q: What about the “pERK levels in tumors” value (pERK in MV4;11 tumors) of the same compound?
A: Decreases in pERK levels

Q: And the IC50 [1]?
A: > 10 µM

Q: And the IC50 (Raf)?
A: > 10 µM

Q: What about the “Photon counts / metastatic growth of PC-3M-luc cells” value (PC-3M-luc tumor cells; 50 mg/kg p.o. daily, vs. vehicle) of the same compound?
A: trend to inhibit metastatic growth; also recorded: trend of decreased photon count; also recorded: trend to inhibit PC-3M-luc photon counts

Q: And the “Efficacy compared with taxol (15 mg/kg)” value (PC-3M-luc tumor cells; 50 mg/kg/d p.o.)?
A: more effective than taxol treatment

Q: What about the EC50 [2] of the same compound?
A: 0.001 to 0.01 µM

Q: What about the IC50 (ERK-½) of the same compound?
A: > 10 µM

Q: And the IC50 (Akt⅓)?
A: > 10 µM
